Experimental data from US6358736B1, “Method for increasing the antigen presenting ability of leukemia cells” (The United States of America as represented by the …, priority 1995, dated 2002).
Entries after “also recorded” stand apart in the source; their conditions may differ.

What was measured:
[1] = system: human peripheral blood monocytes; experiment: FACS analysis of cell surface markers on cultured peripheral blood monocytes; assay type: cell-based
HL-60 cells [2] = experiment: FACS analysis of cell surface markers on HL-60 cells; assay type: cell-based, human; settings: 24 hours
Procedure: Calcium was removed from cultured cells by two methods.
The second method involved washing the cells extensively in calcium-free RPMI medium, and culturing them in the same calcium-free medium supplemented with serum that had been dialyzed against calcium-free phosphate-buffered saline.
The calmodulin kinase inhibitors KN-62 (20 uM) or KT-5926 (1 uM) was added to HL-60 cells in the presence of 188 ng/ml A23187. Twenty four hours later the level of CD80 was analyzed.
Thapsigargin was added to cultured human peripheral blood monocytes and HL-60 cells in concentrations ranging from 0 to 1000 nM. Cells were harvested 24 hours later and evaluated for the acquisition of ADC immunophenotypic characteristics by FACS analysis.
Cells were harvested after three days, irradiated (3000R), then FACS analyzed or cocultured in graded numbers with freshly prepared naive (CD45RO negative) T lymphocytes. Allosensitization was assessed by pulsing at day 4 with ^3H-TdR and harvesting 18 hours later.

WEHI-3 = experiment: Costimulatory molecule expression on mouse myeloid leukemia line; assay type: cell-based; settings: following calcium mobilization
Description: Myeloid leukemia cell lines display marked upregulation of molecules linked to antigen-presentation and acquire increased T cell sensitizing capacity following calcium mobilization with either calcium ionophore or thapsigargin.

HL-60 cells [3] = experiment: FACS analysis of cell surface markers on HL-60 cells; assay type: cell-based, human; settings: optimal doses, within 20 hours
monocytes = experiment: Calcium-chelation luminescence spectrophotometry of intracellular calcium flux; assay type: cell-based, human; settings: indol-loaded monocytes; calcium ionophore 180-750 ng/ml
Procedure: Calcium-chelation luminescence spectrophotometry was utilized to measure intracellular calcium fluxes in monocytes. Monoytes were incubated with 5 uM/ml indol, a calcium chelating agent which emits fluorescence at different wavelengths (405 or 480 nm) depending on whether or not it is bound to cycloplasmic calcium. Increased calcium mobilization causes relative shifts in emission from one wavelength to the other. After 30 minute incubation with indol, monocytes were washed, pulsed with a variety of agents such as calcium ionophore, virus, f-MET-LEU-PHE, or LPS. To measure calcium fluxes at subsequent time intervals, cells were stimulated with a 355 nm wavelength beam, and fluorescence emission measured at 405 and 480 nm.

With C/C=C(/C)C(=O)O[C@H]1C(C)=C2[C@H]([C@@H]1OC(=O)CCCCCCC)[C@@](C)(OC(C)=O)C[C@H](OC(=O)CCC)[C@@]1(O)[C@H]2OC(=O)[C@@]1(C)O [thapsigargin] the “upregulation of CD80, CD86, CD40, HLA-DR, HLA-ABC, ICAM-1 and CD83 as magnitude of that with optimal (750 ng/ml) A23187” value ([1]; thapsigargin 750 nM, 24 hours) was “about 50%”, the “CD14 downregulation, effectiveness relative to ionophore” value ([1]; thapsigargin, 24 hours) was “about 75%” and the “dose giving optimal response” value (HL-60 cells [2]; range 0 to 1000 nM) was 250 nM. The “levels of CD80, CD86 and ICAM-1 relative to those observed with ionophore” value (HL-60 cells [2]; thapsigargin 250 nM) was 50-75%, the costimulatory molecule expression (WEHI-3) was “markedly increased costimulatory molecule expression” and the “expression of CD83, ICAM-1, B7.1 and B7.2” value (HL-60 cells [3]) was “uniform de novo expression of CD83, ICAM-1, B7.1, and B7.2”.
f-MET-LEU-PHE was tested, and the “induction of activated myeloid dendritic cell phenotype (CD80 and CD83 expression)” value ([1]; 20-40 hours, wide dose range, alone or in combination) was “do not induce monocytes to express the phenotype of activated myeloid dendritic cells; also recorded: does not induce that phenotype” and the “intracellular calcium flux / mobilization” value (monocytes) was “only a brief calcium flux of much lower magnitude”.
